Laboratory results from article PMC11053681, “Gold(I) and Silver(I) Complexes Containing Hybrid Sulfonamide/Thiourea Ligands as Potential Leishmanicidal Agents” (Pharmaceutics, 2024).
Where two headings read alike, the source gives them in different places.

Tests used:
[1] = test system: L. braziliensis; design: method as in PMID 32830445; conditions: activity against L. braziliensis and cytotoxicity on macrophages; cited from earlier work
[2] = test system: Leishmania braziliensis; assay: Leishmanicidal activity against promastigotes (resazurin); format: cell-based; conditions: for IC50: promastigote form, 24 h treatment, resazurin, read-out: IC50 L. braziliensis; for SI L. braziliensis: selectivity index = CC50 (Vero) / IC50 (L. braziliensis promastigotes)
Description: (§1) The Leishmania infantum and Leishmania braziliensis strains were maintained in Schneider medium supplemented with 20% of SFB (Schneider 20%), cultivated in […] bottles and stored at 28 °C in a BOD oven. For the assays, parasites at the 5th day stationary growth phase were used.
(§2) The promastigotes metacyclic form of Leishmania infantum and Leishmania braziliensis were first filtered with an insulin syringe to break up rosettes and, then, were isolated from the culture in the stationary phase by centrifugation of 400× g for 4 min at a temperature of 4 °C [53]. The supernatant was subjected to a new centrifugation, heavier, of 2000× g for 30 min, also at 4 °C. The supernatant was discarded and the cell pallet formed from this centrifugation was resuspended in 10 mL of 10% Schneider medium. The process ensured the removal of cellular debris and dead parasites, as well as possible crystals from the culture medium, so that the quality of the experiment was guaranteed. Then, the promastigotes were diluted to 1:10 in paraformaldehyde (PFA) for counting in a Neubauer Chamber, with the concentrations adjusted for each experiment.
(§3) An amount of 1 × 10^7 parasites per well was used. The parasites were plated in 96-well plates. Then, the compounds were added in triplicate, starting at a concentration of 500 µM, with serial dilutions being performed up to a concentration of 3.9 µM [53]. The treatment was carried out for 24 h and, after adding 5 µL of resazurin, the fluorescence was read using a Enspire model spectrofluorometer (Perkin-Elmer, Waltham, MA, USA).

[3] = test system: Leishmania infantum; assay: as above; format: cell-based; conditions: for IC50: promastigote form, 24 h treatment, resazurin, read-out: IC50 L. infantum; for SI L. infantum: selectivity index = CC50 (Vero) / IC50 (L. infantum promastigotes)
Description: as §1, §2, §3

[4] = test system: Vero cells; design: method as in PMID 31152929; conditions: value for the reference drug in Table 5; cited from earlier work
[5] = Solubility in organic solvents; format: physicochemical
[6] = test system: Vero cells; assay: Cytotoxicity assay on Vero cells (resazurin); format: cell-based, African green monkey; conditions: 24 h treatment
Description: For the experiment, Vero cells (ATCC CRL-1587) were used in Roswell Parl Memorial Institute (RPMI) medium with 10% fetal bovine serum (FBS) (RPMI 10%) and 20 μg/mL of Gentamicin. They were cultivated in culture bottles of […] and kept in an oven at 37 °C with 5% carbon dioxide (CO2). When picked or used on the day of the experiment, the cells were detached from the wall of the bottles with saline and 1X trypsin/EDTA. To find out how many cells there were in the bottle, it was diluted in Turkey liquid and then we proceeded with the counting in the Neubauer Chamber to calculate the desired concentrations. The Vero cells were plated at […] cells per well, in 96-well plates, and kept in an incubator with 5% CO2 at 37 °C for 24 h. Then, the compounds were added in triplicate, starting at a concentration of 500 µM, with serial dilution being performed up to a concentration of 3.9 µM [54]. The treatment was carried out for 24 h, and, after adding 5 µL of resazurin, the fluorescence was read using a spectrofluorometer (EnSpire Perkin-Elmer, Waltham, MA, USA).

[7] = Solubility in buffer for the fluorescence experiments; format: physicochemical; conditions: Tris-HCl buffer
Description: (§4) The compounds were solubilized in DMSO and then we made successive dilutions in a Tris-HCl 25 mmol L^−1 buffer, pH 8.0, containing 100 mmol L^−1 of NaCl. For all experiments, the final concentration of DMSO was kept constant and equal to 2.5%. Solutions with increasing concentrations of ligand and constant concentration of LbOYE (1 µmol L^−1) were prepared, which were kept at 25 °C for a period of 1h before acquisition of fluorescence emission spectra.
After the synthesis and structural characterization of the compounds, studies of interaction of the compounds and the recombinant LbOYE were carried out by fluorescence measurements.

[8] = target: T1, LbOYE (Leishmania braziliensis, UniProt A4H6Z3); assay: Suppression of intrinsic tryptophan fluorescence of LbOYE; format: binding; conditions: 25 °C
Excerpt: The recombinant LbOYE protein was produced using the methodology previously described. Briefly, the protein was expressed in strains of bacterial Escherichia coli BL21(DE3) through induction by IPTG using the pET28a:LbOYE vector. The enzyme was purified through a chromatography step of capture by nickel affinity, as the pET28a vector allows the expression of a polyhistidine fusion peptide, located at the N-terminal end of the protein. After affinity purification, the polyhistidine tail was excised by “overnight” incubation with thrombin, and the second purification step was performed using size exclusion chromatography. Purification was evaluated by SDS-PAGE and protein concentration was estimated by spectrophotometry.
The emission spectra of the intrinsic fluorescence of the tryptophan were recorded using a Shimadzu F-4500 spectrofluorometer in the range of 310–420 nm, with opening of slits of excitation and emission at 5.0 nm and λex = 295 nm. Interaction analyzes between LbOYE and ligands were performed at λmax = 333 nm.
as §4
The results were obtained from the fluorescence emission spectra of the intrinsic tryptophan probe in the presence of the compounds HL1^Ch, HL3^FPh, HL5^NO2Ph, [Au(HL1^Ch)2]Cl and [Ag(HL3^FPh)2]NO3. The bonding parameters were determined by the Hill plot, obtaining the dissociation constant (Kd) through the non-linear adjustment of the saturation curve to the experimental data. The double-log plot was used to determine the bonding constant and the number of bonding sites (n). It also allows the calculation of the bonding constant (Kb) and Kd from 1/Kb.
Equation (1)—Hill’s equation:(1) F0−F/F0=[L]/L+Kd
Equation (2)—Double-log:(2) logF0−F/F0=nlogKb−nlog1/L−(F0−F)[P0]/F
Equation (3)—Equation of Stern–Volmer:(3) F0/F=1+KSV[L]
The study of fluorescence quenching can be affected when the ligand has absorption bands that coincide with excitation and emission wavelengths of fluorescence. This interference is called the internal filter effect, which can be minimized using the procedure described by Equation (4). Fobs and Fcor are the fluorescence intensities at 333 nm measured and corrected, respectively; l represents the optical step where the absorption and emission of light occurs and C0 is the concentration of the ligand.
For the correction of the internal filter effect, were used the molar absorptivity coefficient values in the excitation (295 nm) and emission (333 nm) lengths, [λ/ε (L mol^−1 cm^−1)]; HL1^Ch (εex = 373 and εem = 117), HL3^FPh (εex = 1191 and εem = 57), HL5^NO2Ph (εex = 6162 and εem = 9124), Au1 (εex = 7045 and εem = 4008) and Ag3 (εex = 9431 and εem = 3281).

[9] = target: T1, LbOYE; assay: LbOYE enzyme kinetics (NADPH decay at 340 nm); format: biochemical; conditions: 20 µmol L^−1 compound, 1 µmol L^−1 LbOYE, 100 µmol L^−1 NADPH; substrates NEM and O2
Description: The initial rates were obtained through the decay of the band at 340 nm referring to the maximum absorption of the NADPH (Nicotinamide Adenine Dinucleotide Phosphate) reducer, as previously reported. Solutions containing 1 µmol L^−1 of LbOYE, DMSO or 20 µmol L^−1 of the tested compounds from a stock solution at a concentration of 5 mmol L^−1 in DMSO were prepared in the presence and absence of the substrate N-Ethylmaleimide (NEM). These solutions were left for 30 min at room temperature. After 30 min, the NADPH reducer was added at a final concentration of 100 µmol L^−1.
Figure 7 Initial velocity (V0) for the reaction between 1 µmol L^−1 of LbOYE and 100 µmol L^−1 of NADPH in the presence of DMSO (control) or 20 µmol L^−1 of the compounds tested. Using (A) 100 µmol L^−1 of NEM in the presence of O2 and (B) absence of NEM in the presence of O2. Experiments carried out in phosphate buffer 25 mmol L^−1 pH 7.0, NaCl 100 mmol L^−1.

T1 sequence (A4H6Z3 entry or part of it): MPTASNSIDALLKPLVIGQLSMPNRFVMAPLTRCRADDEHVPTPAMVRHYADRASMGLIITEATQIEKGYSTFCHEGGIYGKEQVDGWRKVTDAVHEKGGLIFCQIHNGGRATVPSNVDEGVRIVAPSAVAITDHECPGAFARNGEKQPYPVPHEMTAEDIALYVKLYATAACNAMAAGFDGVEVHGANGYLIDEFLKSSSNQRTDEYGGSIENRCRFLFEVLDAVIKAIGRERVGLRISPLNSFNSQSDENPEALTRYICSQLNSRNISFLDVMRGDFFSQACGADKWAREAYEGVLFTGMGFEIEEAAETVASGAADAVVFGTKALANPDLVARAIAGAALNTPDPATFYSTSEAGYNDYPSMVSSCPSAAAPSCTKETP

Row | Solubility in solvents, in words [5] | Solubility in buffer at the concentrations for the fluorescence experiments, in words [7] | Kd ([8]; Hill plot (n = 1), Equation (1), Tris-HCl pH 8.0, 2.5% DMSO, read-out: Kd * (Hill plot)) [µM] | Ksv *** (Stern–Volmer constant) ([8]; Stern–Volmer, Equation (3)) | Kd ([8]; double log, Equation (2), Kd = 1/Kb, read-out: Kd ** (double log) (converted)) [µM] | n ** (number of bonding sites) ([8]; double log, Equation (2)) | Compound | SI [1] | IC50 [2] [µM] | IC50 [3] [µM] | CC50 [4] [µM] | SI L. braziliensis [2] | SI L. infantum [3] | CC50 [6] [µM] | Inhibition of LbOYE reaction (initial velocity V0), in words [9]
1 | – | – | – | – | – | – | C[C@@H]1[C@H](O)[C@@H](C)/C=C/C=C/C=C/C=C/C=C/C=C/C=C/[C@H](O[C@@H]2O[C@H](C)[C@@H](O)[C@H](N)[C@@H]2O)C[C@@H]2O[C@](O)(C[C@@H](O)C[C@@H](O)[C@H](O)CC[C@@H](O)C[C@@H](O)CC(=O)O[C@H]1C)C[C@H](O)[C@H]2C(=O)O [amphotericin B] | 6.8 | – | – | – | – | – | – | –
2 | – | – | – | – | – | – | Glucantime [reference compound] | – | 176 to 192 | 113 to 130 | 1630 | – | – | – | –
3 | low solubility | – | – | – | – | – | Cc1ccc(S(=O)(=O)NNC(Nc2ccc(Cl)cc2)=[S][Au+][S]=C(NNS(=O)(=O)c2ccc(C)cc2)Nc2ccc(Cl)cc2)cc1.[Cl-] [Au4, [Au(HL4^ClPh)2]Cl] | – | 277.6 ± 0.163 | 38.18 ± 0.158 | – | 0.12 | 0.84 | 32 | –
4 | – | passed this stage | 110 ± 30 | 2.4 ± 0.2 × 10^4 | 39 ± 3 | 1.8 ± 0.1 | Cc1ccc(S(=O)(=O)NNC(NC2CCCCC2)=[S][Au+][S]=C(NNS(=O)(=O)c2ccc(C)cc2)NC2CCCCC2)cc1.[Cl-] [Au1, [Au(HL1^Ch)2]Cl] | – | 77.38 ± 0.018 | 105 ± 3.14 | – | 0.26 | 0.19 | 19.9 | demonstrates capacity of inhibition, although less than the Ag3
